For assay [1], the target named is Rho Kinase. The assay can be described thus: ROCK kinase inhibition assay (Rho Kinase Activity, isoform not given). The assay is classed as biochemical. The note with it: Table 15, mostly given as ranges. As to the method:
All compounds were initially prepared as 10 mM stocks in anhydrous dimethylsulfoxide (DMSO). A 20 μl aliquot of the 10 mM solutions was transferred to individual wells in column 1 of a 96-well polypropylene microtiter plate (Corning #3363) and diluted with DMSO to give a final compound concentration of 4 mM. Test compounds were then serially diluted 1:5 in DMSO for an 11-point concentration response and further diluted in the assay buffer bringing all compound concentrations to a final range of 100 μM to […] in 2.5% DMSO. The assay was performed in white 96-well, flat-bottom, half-area, non-binding assay plate (Corning #3642) in assay buffer consisting of 20 mM HEPES (pH 7.5), 10 mM MgCl2*6H2O, 100 μM sodium orthovanadate, 0.05% CHAPS and 0.1% bovine serum albumin. A 10 μL aliquot of compound from each well of the intermediate dilution plate and 20 μL of a 2× substrate/enzyme solution containing acceptor substrate (800 nM RSK2 peptide […] (SEQ ID NO: 1)), ROCK2 enzyme (10 nM), or ROCK1 enzyme, and 1,4-Dithiothreitol (DTT, 2 uM) were added to all wells. The reaction was initiated by the addition of 10 μL of 4× stock solution ATP (2 μM). Reactions were thoroughly mixed manually, covered and allowed to incubate at room temperature for 75 min. Protein kinase activity was quantitated using Promega's KINASE-GLO™ luminescent Kinase Assay Kit according to the manufacturer's directions. ATP concentrations remaining in Test wells following the termination of the enzymatic reaction were compared against control wells containing equivalent amounts of DMSO containing no inhibitor (CTRL). […] Percent of Control (POC) values were determined for each concentration of compound tested according to the equation: POC=((Test well value−BKG)/(CTRL−BKG))*100
IC50 values were converted to K; […]

For assay [2], the target named is JAK2 (Homo sapiens, UniProt O60674). The assay can be described thus: JAK kinase assay, JAK2 enzyme.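 On all read-outs here: JAK2 kinase reaction run 75 min at room temperature, leftover ATP read by Kinase-Glo luminescence, 11-point dilution series in 2.5% DMSO, percent of inhibitor-free DMSO control.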 The note with it: for Ki: Table 15, in brackets in the activity cell, read-out: JAK2 activity. In kind it is biochemical.
Chain of JAK2 (O60674 whole entry, species assumed): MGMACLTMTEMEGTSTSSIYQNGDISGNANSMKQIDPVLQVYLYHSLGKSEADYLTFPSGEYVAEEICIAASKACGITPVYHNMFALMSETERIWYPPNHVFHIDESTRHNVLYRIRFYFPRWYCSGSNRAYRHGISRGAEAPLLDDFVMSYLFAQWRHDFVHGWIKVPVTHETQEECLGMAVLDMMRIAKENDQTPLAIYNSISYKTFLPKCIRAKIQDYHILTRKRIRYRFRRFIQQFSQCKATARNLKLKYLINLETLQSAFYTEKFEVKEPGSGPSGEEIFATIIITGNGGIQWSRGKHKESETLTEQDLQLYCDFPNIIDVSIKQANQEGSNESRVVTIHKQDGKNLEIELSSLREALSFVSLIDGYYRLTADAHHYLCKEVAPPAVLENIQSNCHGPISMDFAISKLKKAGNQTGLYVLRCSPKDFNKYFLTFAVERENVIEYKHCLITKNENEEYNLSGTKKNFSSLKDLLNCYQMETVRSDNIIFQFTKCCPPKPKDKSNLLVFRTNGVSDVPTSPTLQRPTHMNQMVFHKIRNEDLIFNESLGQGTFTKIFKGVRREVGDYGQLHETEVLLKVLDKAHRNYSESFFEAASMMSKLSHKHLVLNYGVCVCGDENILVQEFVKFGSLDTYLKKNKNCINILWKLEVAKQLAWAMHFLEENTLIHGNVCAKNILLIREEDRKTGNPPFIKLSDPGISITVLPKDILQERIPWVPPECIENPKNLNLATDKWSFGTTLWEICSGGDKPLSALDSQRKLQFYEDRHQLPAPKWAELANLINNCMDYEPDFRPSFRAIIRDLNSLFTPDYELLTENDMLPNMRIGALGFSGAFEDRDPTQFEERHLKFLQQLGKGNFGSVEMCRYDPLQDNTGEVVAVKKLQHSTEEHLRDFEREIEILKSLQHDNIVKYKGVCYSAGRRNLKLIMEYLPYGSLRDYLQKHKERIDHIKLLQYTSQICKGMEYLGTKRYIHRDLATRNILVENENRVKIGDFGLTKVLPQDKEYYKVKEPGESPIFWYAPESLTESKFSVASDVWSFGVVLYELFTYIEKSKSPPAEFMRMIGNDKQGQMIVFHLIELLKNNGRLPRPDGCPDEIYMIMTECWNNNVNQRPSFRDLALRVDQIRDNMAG

The structures appear in SMILES notation.

As for `O=C(NCc1ccccn1)c1ccc([C@@H]2C[C@H]2C(=O)Nc2ccc3cnccc3c2)cc1` [Example E54, 4-((1R,2R)-2-(isoquinolin-6-ylcarbamoyl)cyclopropyl)-N-(pyridin-2-ylmethyl)benzamide], the Ki in assay [1] lay in the range of 0.001 to 0.002 µM; in assay [2], 0.015 to 0.09 µM.
In the same order, the values of `O=C(NCc1cccnc1)c1cccc(C2CC2C(=O)Nc2ccc3cnccc3c2)c1` (stereo not shown) [Example E173] are 0.0007 to 0.001 µM and 0.2 µM.
`O=C(NCc1cccnc1)c1ccc(C2CC2C(=O)Nc2ccc3cnccc3c2F)cc1` (stereo not shown) [Example E35]: the Ki in assay [1] is 0.0005 to 0.008 µM; in assay [2], 0.3 to 0.95 µM.
In the same order, the values of `C[C@@H]1OC(c2ccc(C3CC3C(=O)Nc3ccc4cnccc4c3)cc2)O[C@@H]1C` (stereo partly drawn) [Example E158, trans-2-(4-((4S,5S)-4,5-dimethyl-1,3-dioxolan-2-yl)phenyl)-N-(isoquinolin-6-yl)cyclopropane-1-carboxamide] are 0.165 to 0.215 µM and 1 µM.
Taken in the same sequence, the figures for `O=C(O)c1ccc([C@@H]2C[C@H]2C(=O)Nc2ccc3cnccc3c2)cc1` [Example E116, 4-((1R,2R)-2-(isoquinolin-6-ylcarbamoyl)cyclopropyl)benzoic acid] were 0.1 to 0.4 µM and 0.4 to 0.7 µM.
In the same order, the values of `O=C(NCc1ccccn1)c1ccc(C2CC2C(=O)Nc2ccc3cnccc3c2)c(F)c1` (stereo not shown) [Example E194] are 0.0035 to 0.004 µM and 0.015 µM.
In the case of `O=C(NCc1cccnc1)c1ccc(C2CC2C(=O)Nc2cc3ccncc3cc2Br)cc1` (stereo not shown) [Example E32], the figures for the Ki in assay [1] and in assay [2] were 0.0025 to 0.0045 µM and 0.4 to 1.3 µM, respectively.
In the case of `O=C(NC[C@@H]1CCCNC1)c1ccc([C@@H]2C[C@H]2C(=O)Nc2ccc3cnccc3c2)cc1` [Example E57.2], the Ki was 0.0001 to 0.001 µM in assay [1] and 0.007 µM in assay [2].
For the compound `O=C(OCc1ccccc1)c1ccc([C@@H]2C[C@H]2C(=O)Nc2ccc3cnccc3c2)cc1` (relative stereo) [Example E96, trans-benzyl 4-(2-(isoquinolin-6-ylcarbamoyl)cyclopropyl)benzoate], the Ki in assay [1] fell in the range of 0.02 to 0.13 µM; in assay [2], 1.6 to 5 µM.
Taken in the same sequence, the figures for `O=C(NCCO)c1ccc(C2CC2C(=O)Nc2ccc3cnccc3c2)cc1` (stereo not shown) [Example E38] were 0.007 to 0.0095 µM and 0.136 µM.
Taken in the same sequence, the figures for `O=C(NCc1ccc(C(F)(F)F)cc1)c1ccc(C2CC2C(=O)Nc2ccc3cnccc3c2)cc1` (stereo not shown) [Example E16] were 0.005 to 0.075 µM and 2.5 to 9 µM.
Taken in the same sequence, the figures for `COc1ccc(CNC(=O)c2ccc([C@@H]3C[C@H]3C(=O)Nc3ccc4cnccc4c3)c(F)c2)cc1` (relative stereo) [Example E193, trans-3-fluoro-4-(2-(isoquinolin-6-ylcarbamoyl)cyclopropyl)-N-(4-methoxybenzyl)benzamide] were 0.006 to 0.008 µM and 0.11 µM.
Regarding `O=C(NCc1cccnc1)c1ccc([C@@H]2C[C@H]2C(=O)Nc2ccc3cnccc3c2F)cc1` [Example E56.1], the Ki in assay [1] is 0.0001 to 0.0005 µM; in assay [2], 0.04 to 0.075 µM.
Taken in the same sequence, the figures for `O=C(OCc1ccccn1)c1ccc([C@@H]2C[C@H]2C(=O)Nc2ccc3cnccc3c2)cc1` (racemic) [Example E99, trans-pyridin-2-ylmethyl 4-(2-(isoquinolin-6-ylcarbamoyl)cyclopropyl) benzoate] were 0.0005 to 0.006 µM and 0.25 to 0.6 µM.
In the same order, the values of `O=C(NCc1ccccn1)c1ccc(C2CC2C(=O)Nc2ccc3c(O)nccc3c2)cc1` (stereo not shown) [Example E31] are 0.005 to 0.007 µM and 0.375 to 0.57 µM.
As to `CC(C)(C)OC(=O)N1CCCC1CNC(=O)c1ccc(C2CC2C(=O)Nc2ccc3cnccc3c2)cc1` (stereo not shown) [Example 19.1], the Ki was in the range of 0.03 to 0.06 µM in assay [1] and 1.5 to 3.5 µM in assay [2].
On to `O=Cc1ccc([C@@H]2C[C@H]2C(=O)Nc2ccc3cnccc3c2)cc1` (racemic) [Example E159, trans-2-(4-formylphenyl)-N-(isoquinolin-6-yl)cyclopropane-1-carboxamide], for which the Ki was 0.02 to 0.05 µM in assay [1] and 0.27 µM in assay [2].
In the case of `O=C(NCc1cccnc1)c1ccc(C2CC2C(=O)Nc2ccc3cncc(F)c3c2)cc1` (stereo not shown) [Example E33], the figures for the Ki in assay [1] and in assay [2] were 0.005 to 0.008 µM and 0.075 to 0.11 µM, respectively.
In the same order, the values of `O=C(Nc1ccncc1)c1ccc(C2CC2C(=O)Nc2ccc3cnccc3c2)cc1` (stereo not shown) [Example E12] are 0.001 to 0.004 µM and 0.4 µM.
In the same order, the values of `O=C(OCc1ccccc1)c1ccc([C@@H]2C[C@H]2C(=O)Nc2ccc3cnccc3c2)cc1` [Example E115, benzyl 4-((1R,2R)-2-(isoquinolin-6-ylcarbamoyl)cyclopropyl)benzoate] are 0.04 to 0.075 µM and 3 to 5 µM.
Regarding `CC(C)(C)OC(=O)N1CCC(CNC(=O)c2ccc(C3CC3C(=O)Nc3ccc4cnccc4c3)cc2)C1` (stereo not shown) [Example E20.1], the results for the Ki in assay [1] and in assay [2] were 0.0005 to 0.002 µM and 0.7 to 2 µM, respectively.
For `CC(C)(C)OC(=O)N1CCC(CNC(=O)c2ccc(C3CC3C(=O)Nc3ccc4cnccc4c3)cc2)CC1` (stereo not shown) [Example E29.1], the results for the Ki in assay [1] and in assay [2] were 0.0005 to 0.001 µM and 1 to 6 µM, respectively.
In assay [1], `O=C(NCc1ccccn1)c1ccc([C@H]2C[C@@H]2C(=O)Nc2ccc3cnccc3c2)cc1` [Example E55] registered a Ki of 12 to 52 µM. Besides, the JAK2 activity result in assay [2] was “inactive”.
For `Cc1cncc2ccc(NC(=O)C3CC3c3ccc(C(=O)NCc4cccnc4)cc3)cc12` (stereo not shown) [Example E34], the Ki lay within 0.007 to 0.014 µM in assay [1] and 0.03 to 0.045 µM in assay [2].
Taken in the same sequence, the figures for `O=C(Nc1ccc2cnccc2c1)c1ccc(C2CC2C(=O)Nc2ccc3cnccc3c2)cc1` (stereo not shown) [Example E18] were 0.0008 to 0.008 µM and 1 to 1.2 µM.
In assay [1], `O=C(OCc1ccccc1)c1ccc(C2CC2C(=O)Nc2cc3ccncc3cc2Cl)cc1` (stereo not shown) [Example E104.1] displayed a Ki of 0.015 to 0.075 µM. For the same compound, the JAK2 activity entry in assay [2] was “inactive”.
As to `O=C(NCC1CCCN1)c1ccc(C2CC2C(=O)Nc2ccc3cnccc3c2)cc1` (stereo not shown) [Example E19.2], the Ki was in the range of 0.006 to 0.012 µM in assay [1] and 0.3 to 0.35 µM in assay [2].
For the compound `CN(C)CCNC(=O)c1ccc(C2CC2C(=O)Nc2ccc3cnccc3c2)cc1` (stereo not shown) [Example E37], the Ki in assay [1] was 0.0043 to 0.009 µM; in assay [2] it was 0.8 µM.
Taken in the same sequence, the figures for `O=C(Nc1ccc2cnccc2c1)[C@@H]1C[C@H]1c1ccc(I)cc1` (relative stereo) [Example E251, rel-(1R,2R)-2-(4-iodophenyl)-N-(isoquinolin-6-yl)cyclopropane-1-carboxamide] were 0.15 to 0.4 µM and 0.5 to 0.8 µM.
In the same order, the values of `O=C(NCCN1CCCCC1)c1ccc(C2CC2C(=O)Nc2ccc3cnccc3c2)cc1` (stereo not shown) [Example E39] are 0.005 to 0.007 µM and 0.4 µM.
For `CC(C)(C)OC(=O)N1CCC[C@@H](CNC(=O)c2ccc([C@@H]3C[C@H]3C(=O)Nc3ccc4cnccc4c3)cc2)C1` [Example E57.1], the Ki in assay [1] was in the range of 0.00015 to 0.001 µM; in assay [2], 0.045 to 0.065 µM.
Regarding `O=C(NCC1CCNC1)c1ccc(C2CC2C(=O)Nc2ccc3cnccc3c2)cc1` (stereo not shown) [Example E20.2], the Ki in assay [1] fell in the range of 0.004 to 0.006 µM; in assay [2], 0.027 to 0.15 µM.
In the same order, the values of `CC(C)(C)OC(=O)c1ccc(C2CC2C(=O)Nc2ccc3cnccc3c2)cc1` (stereo not shown) [Example E191.1] are 0.105 to 0.155 µM and 5.2 µM.
In the case of `O=C(Nc1ccc2cnccc2c1)C1CC1c1ccc(COCc2ccccc2)cc1` (stereo not shown), the Ki in assay [1] is 0.35 to 0.6 µM.

(Values after US10858339B2, “Aryl cyclopropyl-amino-isoquinolinyl amide compounds” (priority 2017, dated 2020).)
